According to patent US7226939B2, “Thienopyridine analogues with antifungal activity and process thereof” (priority 2002, dated 2007):

System: C. albicans
Test: In vitro antifungal susceptibility testing (MIC), soyabean casein digest broth
Type: cell-based
Details: Candida albicans, reference standard, end points after 48 hours, read-out: minimum inhibitory concentration
Experimental: In vitro evaluation of antifungal activity can be performed by determining the minimum inhibitory concentration.
Anti-fungal susceptibility testing of these anti-fungal compounds was done by conventional method using soyabean casein digest broth. Known anti-fungal agents like Fluconazole and amphotericin-B were used as positive Control. End points were determined after 48 hours visually and by using Spectrophotometer wherever necessary. Different dilutions were tried and the set of experiments where repeated to confirm the end points. Standard cultures of Candida, Aspergillus and Fusarium were used for screening of these drugs.
Substituents and In-Vitro Anti-Fungal Activity (C. albicans) of the Compounds Expressed as MIC* (μg/ml). Reference Standard (RS) Fluconazole.

MIC: < 3.12 µg/mL
SMILES: OC(Cn1cncn1)(Cn1cncn1)c1ccc(F)cc1F [Fluconazole]
